Patent US20250011299A1, “PYRIDAZINYL AMINO DERIVATIVES AS ALK5 INHIBITORS” (CHIESI FARMACEUTICI S.P.A., priority 2021, published 2025)

Target: T1, human ALK5 (Homo sapiens, UniProt P36897)
T1 construct: human ALK5 (recombinant TGF β1 N-term GST-tagged, 80-end); GST (N); purchased
T1 sequence (P36897 80-503 limits assumed): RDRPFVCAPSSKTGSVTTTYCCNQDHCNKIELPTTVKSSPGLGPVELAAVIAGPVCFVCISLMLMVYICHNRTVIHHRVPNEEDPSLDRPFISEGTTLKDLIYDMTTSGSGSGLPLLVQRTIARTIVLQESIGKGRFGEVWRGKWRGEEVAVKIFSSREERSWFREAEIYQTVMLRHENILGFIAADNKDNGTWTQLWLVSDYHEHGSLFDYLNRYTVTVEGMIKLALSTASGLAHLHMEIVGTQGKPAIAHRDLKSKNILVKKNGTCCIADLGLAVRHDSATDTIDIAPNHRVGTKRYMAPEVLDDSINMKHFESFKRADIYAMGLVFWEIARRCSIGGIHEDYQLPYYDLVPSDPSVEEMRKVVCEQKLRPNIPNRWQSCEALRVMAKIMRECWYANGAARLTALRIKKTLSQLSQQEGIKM
Experiment: ADP-GLO Kinases assay of ALK5 enzymatic activity
Assay type: biochemical
Conditions: purified recombinant human ALK5, TGFβ1 peptide substrate, pIC50 converted to pKi by Cheng-Prusoff, high ATP protocol (15 μM) for very potent compounds, 25° C.
How it was run: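 Purified ALK5 preincubated 15 min with compound, then reacted with substrate and ATP; ADP formed read by ADP-Glo luminescence after 120 min or 60 min reaction, all steps at 25° C. 11-point concentration-response; pIC50 converted to pKi via Cheng-Prusoff.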

| Ki [nM] | Structure (SMILES) |
| --- | --- |
| 0.126 to 0.316 | COC(=O)COc1nnc(-c2cc(Cl)ccc2F)cc1Nc1ccnc(NC(=O)CCN2CCN(C)CC2)c1 [Example 15, methyl 2-{[6-(5-chloro-2-fluorophenyl)-4-({2-[3-(4-methylpiperazin-1-yl)propanamido]pyridin-4-yl}amino)pyridazin-3-yl]oxy}acetate] |
| 0.126 to 0.316 | CN1CCN(CCC(=O)Nc2cc(Nc3cc(-c4cc(Cl)ccc4F)nnc3N(C)[C@H]3CCOC3)ccn2)CC1 (single isomer, unassigned) [Example 106, N-(4-{[6-(5-chloro-2-fluorophenyl)-3-[methyl(oxolan-3-yl)amino]pyridazin-4-yl]amino}pyridin-2-yl)-3-(4-methylpiperazin-1-yl)propanamide] |
| ≤ 0.1 | CSc1nnc(-c2cc(Cl)ccc2F)cc1Nc1ccnc(NC(=O)CCN2CCN(CCN)CC2)c1 [Example 20, 3-[4-(2-aminoethyl)piperazin-1-yl]-N-(4-{[6-(5-chloro-2-fluorophenyl)-3-(methylsulfanyl)pyridazin-4-yl]amino}pyridin-2-yl)propanamide] |
| ≤ 0.1 | CN1CCCN(CC(=O)Nc2cc(Nc3cc(-c4cc(Cl)ccc4F)nnc3OC3CCOC3)ccn2)CC1 (racemic) [Example 72, N-(4-{[6-(5-chloro-2-fluorophenyl)-3-(oxolan-3-yloxy)pyridazin-4-yl]amino}pyridin-2-yl)-2-(4-methyl-1,4-diazepan-1-yl)acetamide] |
| ≤ 0.1 | CN1CCCN(CCC(=O)Nc2cc(Nc3cc(-c4cc(Cl)ccc4F)nnc3SCCO)ccn2)CC1 [Example 84, N-(4-{[6-(5-chloro-2-fluorophenyl)-3-[(2-hydroxyethyl)sulfanyl]pyridazin-4-yl]amino}pyridin-2-yl)-3-(4-methyl-1,4-diazepan-1-yl)propanamide] |
| 0.398 to 3.16 | COC(=O)c1cc2c(Nc3cc(-c4cc(Cl)ccc4F)nnc3OCCCN(C)C)ccnc2[nH]1 [Example 10, methyl 4-{[6-(5-chloro-2-fluorophenyl)-3-[3-(dimethylamino)propoxy]pyridazin-4-yl]amino}-1H-pyrrolo[2,3-b]pyridine-2-carboxylate] |
| ≤ 0.1 | COCCOc1nnc(-c2cc(Cl)ccc2F)cc1Nc1ccnc(NC(=O)CCN2CCN(C)CC2)c1 [Example 31, N-(4-{[6-(5-chloro-2-fluorophenyl)-3-(2-methoxyethoxy)pyridazin-4-yl]amino}pyridin-2-yl)-3-(4-methylpiperazin-1-yl)propanamide] |
| ≤ 0.1 | CN1CCN([C@H]2C[C@@H](C(=O)Nc3cc(Nc4cc(-c5cc(Cl)ccc5F)nnc4N(C)CC4(C)CCOC4=O)ccn3)C2)CC1 (single isomer, unassigned) [Example 135, Cis N-(4-{[6-(5-chloro-2-fluorophenyl)-3-{methyl[(3-methyl-2-oxooxolan-3-yl)methyl]amino}pyridazin-4-yl]amino}pyridin-2-yl)-3-(4-methylpiperazin-1-yl)cyclobutane-1-carboxamide] |
| 0.398 to 3.16 | CS(=O)(=O)CCCOc1nnc(-c2cc(Cl)ccc2F)cc1Nc1ccnc(N)c1 [Example 56, N4-[6-(5-chloro-2-fluorophenyl)-3-(3-methanesulfonylpropoxy)pyridazin-4-yl]pyridine-2,4-diamine] |
| ≤ 0.1 | CSc1nnc(-c2cc(Cl)ccc2F)cc1Nc1ccnc(NC(=O)CCN2CCN(C)CC2)c1 [Example 16, N-(4-{[6-(5-chloro-2-fluorophenyl)-3-(methylsulfanyl)pyridazin-4-yl]amino}pyridin-2-yl)-3-(4-methylpiperazin-1-yl)propanamide] |
| 0.126 to 0.316 | CCOC(=O)C(C)(C)CN(C)c1nnc(-c2cc(Cl)ccc2F)cc1Nc1ccnc(NC(=O)CCN2CCN(C)CC2)c1 [Example 145, ethyl 3-{[6-(5-chloro-2-fluorophenyl)-4-({2-[3-(4-methylpiperazin-1-yl)propanamido]pyridin-4-yl}amino)pyridazin-3-yl](methyl)amino}-2,2-dimethylpropanoate] |
| ≤ 0.1 | COCCOc1nnc(-c2cc(Cl)ccc2F)cc1Nc1ccnc(NC(=O)CCN2CCN(CC(F)(F)F)CC2)c1 [Example 33, N-(4-{[6-(5-chloro-2-fluorophenyl)-3-(2-methoxyethoxy)pyridazin-4-yl]amino}pyridin-2-yl)-3-[4-(2,2,2-trifluoroethyl)piperazin-1-yl]propanamide] |
| 0.126 to 0.316 | CN1CCN(CCC(=O)Nc2cc(Nc3cc(-c4cc(Cl)ccc4F)nnc3[S+](C)[O-])ccn2)CC1 (stereo not drawn) [Example 17, N-(4-{[6-(5-chloro-2-fluorophenyl)-3-methanesulfinylpyridazin-4-yl]amino}pyridin-2-yl)-3-(4-methylpiperazin-1-yl)propanamide] |
| ≤ 0.1 | COCCOc1nnc(-c2cc(Cl)ccc2F)cc1Nc1ccnc2cc(OCCN3CCN(C)CC3)ccc12 [Example 32, N-[6-(5-chloro-2-fluorophenyl)-3-(2-methoxyethoxy)pyridazin-4-yl]-7-[2-(4-methylpiperazin-1-yl)ethoxy]quinolin-4-amine] |
| ≤ 0.1 | CN1CCN(CCOc2ccc3c(Nc4cc(-c5cc(Cl)ccc5F)nnc4OCCNS(C)(=O)=O)ccnc3c2)CC1 [Example 6, N-(2-{[6-(5-chloro-2-fluorophenyl)-4-({7-[2-(4-methylpiperazin-1-yl)ethoxy]quinolin-4-yl}amino)pyridazin-3-yl]oxy}ethyl)methanesulfonamide] |
| ≤ 0.1 | C[C@@H]1CN(CC(=O)Nc2cc(Nc3cc(-c4cc(Cl)ccc4F)nnc3SCCO)ccn2)C[C@H](C)N1 [Example 193, N-(4-{[6-(5-chloro-2-fluorophenyl)-3-[(2-hydroxyethyl)sulfanyl]pyridazin-4-yl]amino}pyridin-2-yl)-2-(3,5-dimethylpiperazin-1-yl)acetamide] |
| 0.126 to 0.316 | COc1nnc(-c2cc(Cl)ccc2F)cc1Nc1ccnc(N)c1 [Example 48, N4-[6-(5-chloro-2-fluorophenyl)-3-methoxypyridazin-4-yl]pyridine-2,4-diamine] |
| 0.126 to 0.316 | CSCCCOc1nnc(-c2cc(Cl)ccc2F)cc1Nc1ccnc(N)c1 [Example 55, N4-[6-(5-chloro-2-fluorophenyl)-3-[3-(methylsulfanyl)propoxy]pyridazin-4-yl]pyridine-2,4-diamine] |
| ≤ 0.1 | CN1CCN(CCC(=O)Nc2cc(Nc3cc(-c4cc(Cl)ccc4F)nnc3OCCNS(C)(=O)=O)ccn2)CC1 [Example 9, N-(4-{[6-(5-chloro-2-fluorophenyl)-3-(2-methanesulfonamidoethoxy)pyridazin-4-yl]amino}pyridin-2-yl)-3-(4-methylpiperazin-1-yl)propanamide] |
| 0.126 to 0.316 | CN1CCN([C@H]2C[C@@H](C(=O)Nc3cc(Nc4cc(-c5cc(Cl)ccc5F)nnc4OC4CCOC4)ccn3)C2)CC1 (single isomer, unassigned) [Example 113, N-(4-{[6-(5-chloro-2-fluorophenyl)-3-(oxolan-3-yloxy)pyridazin-4-yl]amino}pyridin-2-yl)-3-(4-methylpiperazin-1-yl)cyclobutane-1-carboxamide] |
| ≤ 0.1 | CN1CCN(CCC(=O)Nc2cc(Nc3cc(-c4cc(Cl)ccc4F)nnc3OC[C@H]3C[C@@H](O)C3)ccn2)CC1 [Example 71, Cis N-(4-{[6-(5-chloro-2-fluorophenyl)-3-[(3-hydroxycyclobutyl)methoxy]pyridazin-4-yl]amino}pyridin-2-yl)-3-(4-methylpiperazin-1-yl)propanamide] |
